Data from patent US20240279174A1, “ANTIBIOTICS COMPRISING LPXH-TARGETING COMPOUNDS AND METHODS OF MAKING AND USING THE SAME” (Duke University, priority 2019, published 2024).
Values after ≈ are worked out from the molar mass of the structure shown. Like-named read-outs stand apart in the source and are kept apart here.

Assays:
[1] = test system: K. pneumoniae (ATCC 10031); assay: MIC assay (broth microdilution), K. pneumoniae; type: cell-based; settings: Klebsiella pneumoniae, ATCC10031
Experimental: The MIC assay protocol was adapted from the broth microdilution methods described by the National Committee for Clinical Laboratory Standards using 96-well plates as described previously. In brief, overnight bacterial cultures were diluted to an OD600 of 0.006 in cation-adjusted Mueller-Hinton medium containing 7% DMSO and incubated at 37° C. for 22 h in the presence of varying concentrations of inhibitors. Following overnight incubation, each well is treated with 10 μL of 3-(4,5-dimethylthiazol-2-yl)-2,5-diphenyltetrazolium bromide (MTT, 5 mg/mL) for 3 h. Finally, the culture is solubilized by addition of 2-propanol, and the results are read by taking the difference of the UV reading at both 570 and 690 nm. MIC values were reported as the lowest compound concentration that inhibited bacterial growth. The baseline for inhibited cell growth was determined to be <4× the average control reading due to the baseline optical density of the initial starting bacterial culture.

[2] = target: K. pneumoniae LpxH (KpLpxH) (Klebsiella pneumoniae subsp. pneumoniae (strain ATCC 700721 / MGH 78578), UniProt A6T5R0); assay: LpxE-coupled malachite green LpxH activity assay (KpLpxH inhibition); type: biochemical; settings: for remaining activity at 0.1 µM / inhibition at 0.1 µM / Percentage Activity of KpLpxH (vi/v0): 0.1 μM inhibitor; for remaining activity at 0.1 µM / Percentage Activity of KpLpxH (vi/v0): normalized against KpLpxH activity in 10% DMSO; for remaining activity at 0.1 µM: read-out: Percentage Activity of KpLpxH (vi/v0); for inhibition at 0.1 µM: read-out: Percentage Inhibition of KpLpxH
Experimental: Evaluation of LpxH inhibition by analogs: After completing the synthesis of sulfonyl piperazine compounds with various forms of linkers, the KpLpxH inhibition was biochemically characterized by these analogs at 0.1 μM using the nonradioactive, colorimetric malachite green assay that we had previously reported. […] Such an enhanced potency requires the presence of the hydroxamate group, as its substitution with a carboxylate group in compound 7 reduced the compound activity (vi/v0=30±6%).
The LpxE-coupled LpxH activity assay was conducted as described previously using the GB1-K. pneumoniae LpxH-His10 fusion protein. Briefly, two reaction mixtures were prepared. Mixture 1 contains 20 mM Tris-HCl (pH 8.0), 0.5 mg/mL BSA, 0.02% Triton X-100, 1 mM MnCl2, 1 mM DTT, 10% DMSO, and 200 µM substrate (UDP-DAGn), and mixture 2 is comprised of the same buffer, but instead of substrate, contains both LpxH (20 ng/ml) and 2× inhibitor. These mixtures were then pre-incubated at 37° C. for 10 min. To initiate the reaction, an equal volume of the LpxH mixture (mixture 2) was added to the substrate mixture (mixture 1) at 37° C. The final reaction solution contains 100 μM substrate, 10 ng/ml enzyme, and 1× inhibitor. At the desired reaction time points, an aliquot of 20 μL reaction mixture was removed and added to a well in 96-well half-area plate containing 5 mM EDTA (final concentration) to quench the LpxH reaction. Purified Aquifex aeolicus LpxE was then added to a final concentration of 5 μg/mL. The plate was incubated at 37° C. for 30 min followed by addition of formic acid to a final concentration of 3.75 M to quench the LpxE reaction. The malachite green reagent (Sigma Aldrich, catalog MAK307) was diluted 5-fold into the solutions, and the plate was incubated for 30 min at room temperature before the absorbance at 620 nm was measured. All measurements were done in triplicates, and standard error (S.E.) was calculated.

[3] = Table 4, read-out: MIC - K. pneumoniae (ATCC 10031)
[4] = Table 5, read-out: IC50: Average
[5] = K. pneumoniae (ATCC 10031), in vitro, read-out: MIC

MIC [1, 3] [µg/mL]	IC50 [2, 4] [nM]	SMILES	further results
3 (≈ 6.36 µM)	139	CC(=O)N1CCc2cc(S(=O)(=O)N3CCN(c4cc(F)cc(C(F)(F)F)c4)CC3)ccc21 [JH-LPH-28]	
10.7 (≈ 18.5 µM)	73	O=C(CCCCNC(=O)Nc1ccc(S(=O)(=O)N2CCN(c3cc(Cl)cc(C(F)(F)F)c3)CC2)cc1)NO [JH-LPH-41]	remaining activity at 0.1 µM [2]: 36%; inhibition at 0.1 µM [2]: 64%
> 64		CC(=O)n1ccc2cc(S(=O)(=O)N3CCN(c4cc(Cl)cc(C(F)(F)F)c4)CC3)ccc21 [JH-LPH-42]	
		O=C(CCCCCC(=O)N1CCc2cc(S(=O)(=O)N3CCN(c4cc(Cl)cc(C(F)(F)F)c4)CC3)ccc21)NO [JH-LPH-46]	Percentage Activity of KpLpxH (vi/v0) ([2]; listed as 10 (JH-LPH-46)): 93 ± 7%; remaining activity at 0.1 µM [2]: 93 ± 7%; inhibition at 0.1 µM [2]: 7%
> 64		CS(=O)(=O)N1CCc2cc(S(=O)(=O)N3CCN(c4cc(Cl)cc(C(F)(F)F)c4)CC3)ccc21 [JH-LPH-47]	
> 64	49	CC(=O)N1CCc2cc(S(=O)(=O)N3CCN(c4cc(Br)cc(C(F)(F)F)c4)CC3)ccc21 [JH-LPH-48]	
18.7 (≈ 39.9 µM)	152	CC(=O)N1CCc2cc(S(=O)(=O)N3CCN(c4cc(C)cc(C(F)(F)F)c4)CC3)ccc21 [JH-LPH-49]	
		O=C(O)CCCCCNC(=O)Nc1ccc(S(=O)(=O)N2CCN(c3cc(Cl)cc(C(F)(F)F)c3)CC2)cc1 [JH-LPH-54]	Percentage Activity of KpLpxH (vi/v0) ([2]; listed as 12 (JH-LPH-54)): 57 ± 3%; remaining activity at 0.1 µM [2]: 57 ± 3%; inhibition at 0.1 µM [2]: 43%
		O=C(O)CCCCNC(=O)N1CCc2cc(S(=O)(=O)N3CCN(c4cc(Cl)cc(C(F)(F)F)c4)CC3)ccc21 [JH-LPH-55]	Percentage Activity of KpLpxH (vi/v0) ([2]; listed as 7 (JH-LPH-55)): 30 ± 6%; remaining activity at 0.1 µM [2]: 30 ± 6%; inhibition at 0.1 µM [2]: 70%
		O=C(NCCCCc1cccn(O)c1=S)Nc1ccc(S(=O)(=O)N2CCN(c3cc(Cl)cc(C(F)(F)F)c3)CC2)cc1 [JH-LPH-60]	Percentage Activity of KpLpxH (vi/v0) ([2]; listed as 15 (JH-LPH-60)): 39 ± 6%; remaining activity at 0.1 µM [2]: 39 ± 6%; inhibition at 0.1 µM [2]: 61%
> 64		O=C(NCCn1cc(C(=O)O)nn1)Nc1ccc(S(=O)(=O)N2CCN(c3cc(Cl)cc(C(F)(F)F)c3)CC2)cc1 [JH-LPH-61]	
24 (≈ 38.9 µM)		O=C(NCCn1cc(C(=O)NO)nn1)Nc1ccc(S(=O)(=O)N2CCN(c3cc(Cl)cc(C(F)(F)F)c3)CC2)cc1 [JH-LPH-62]	Percentage Activity of KpLpxH (vi/v0) ([2]; listed as 20 (JH-LPH-62)): 59 ± 7%; remaining activity at 0.1 µM [2]: 59 ± 7%; inhibition at 0.1 µM [2]: 41%
20 (≈ 33.9 µM)		O=C(/C=C/CCCNC(=O)Nc1ccc(S(=O)(=O)N2CCN(c3cc(Cl)cc(C(F)(F)F)c3)CC2)cc1)NO [JH-LPH-64]	Percentage Activity of KpLpxH (vi/v0) ([2]; listed as 18 (JH-LPH-64)): 34 ± 7%; remaining activity at 0.1 µM [2]: 34 ± 7%; inhibition at 0.1 µM [2]: 66%
12 (≈ 20.3 µM)	13	O=C(CCCCCCC(=O)Nc1ccc(S(=O)(=O)N2CCN(c3cc(Cl)cc(C(F)(F)F)c3)CC2)cc1)NO [JH-LPH-65]	
26.7 (≈ 45.3 µM)		O=C(CC/C=C/CCC(=O)Nc1ccc(S(=O)(=O)N2CCN(c3cc(Cl)cc(C(F)(F)F)c3)CC2)cc1)NO [JH-LPH-66]	
28 (≈ 43.5 µM)		O=C(CCCCCCC(O)Cn1cncn1)Nc1ccc(S(=O)(=O)N2CCN(c3cc(Cl)cc(C(F)(F)F)c3)CC2)cc1 (stereo not drawn) [JH-LPH-68]	
4 (≈ 7.31 µM)	79	O=C(CN1CCOCC1)Nc1ccc(S(=O)(=O)N2CCN(c3cc(Cl)cc(C(F)(F)F)c3)CC2)cc1 [JH-LPH-69]	
10.7 (≈ 18.6 µM)	62	O=C(CN1CCOCC1)N1CCc2cc(S(=O)(=O)N3CCN(c4cc(Cl)cc(C(F)(F)F)c4)CC3)ccc21 [JH-LPH-70]	
8 (≈ 15.9 µM)		NCC(=O)N1CCc2cc(S(=O)(=O)N3CCN(c4cc(Cl)cc(C(F)(F)F)c4)CC3)ccc21 [JH-LPH-71]	
> 64		CN(C)CC(=O)N1CCc2cc(S(=O)(=O)N3CCN(c4cc(Cl)cc(C(F)(F)F)c4)CC3)ccc21 [JH-LPH-72]	

MIC [1, 3] [µg/mL]	IC50 [2, 4] [nM]	SMILES	further results
0.67 (≈ 1.37 µM)	37	NC(=O)N1CCc2cc(S(=O)(=O)N3CCN(c4cc(Cl)cc(C(F)(F)F)c4)CC3)ccc21 [JH-LPH-73]	
> 64		O=C(CCCn1cc(C(=O)Nc2ccc(S(=O)(=O)N3CCN(c4cc(Cl)cc(C(F)(F)F)c4)CC3)cc2)nn1)NO [JH-LPH-74]	
> 64		NC(=O)N1CCc2cc(S(=O)(=O)N3CCN(c4cc(Cl)cc(C(F)(F)F)c4)CC3)c(F)cc21 [JH-LPH-75]	
> 64		NC(=O)N1CCc2cc(S(=O)(=O)N3CCN(c4cc(Cl)cc(C(F)(F)F)c4)CC3)c(Cl)cc21 [JH-LPH-76]	
> 64		CS(=O)(=O)Nc1ccc(S(=O)(=O)N2CCN(c3cc(Cl)cc(C(F)(F)F)c3)CC2)cc1 [JH-LPH-77]	
	37	O=C(COCc1ccc2nonc2c1)N1CCc2cc(S(=O)(=O)N3CCN(c4cc(Cl)cc(C(F)(F)F)c4)CC3)ccc21 [JH-LPH-79]	
	431	O=C(NO)c1ccc(-c2ccccc2C(=O)Nc2ccc(S(=O)(=O)N3CCN(c4cc(Cl)cc(C(F)(F)F)c4)CC3)cc2)cc1 [JH-LPH-80]	
32 (≈ 81.7 µM)		CC(=O)N1CCc2cc(S(=O)(=O)N3CCN(C4CCCCC4)CC3)ccc21 [JH-LPH-81]	
> 64		CCOC(=O)c1ccc(N2CCN(S(=O)(=O)c3ccc4c(c3)CCN4C(C)=O)CC2)cc1 [JH-LPH-82]	
64 (≈ 176 µM)		C/C=C/CN1CCN(S(=O)(=O)c2ccc3c(c2)CCN3C(C)=O)CC1 [JH-LPH-83]	
32 (≈ 87.6 µM)		CCCCN1CCN(S(=O)(=O)c2ccc3c(c2)CCN3C(C)=O)CC1 [JH-LPH-84]	
12 (≈ 26.1 µM)		CC(=O)N1CCc2cc(S(=O)(=O)N3CCN(c4nc(C(F)(F)F)cs4)CC3)ccc21 [JH-LPH-85]	
0.125 (≈ 0.275 µM)		CC(=O)N1CCc2cc(S(=O)(=O)N3CCN(c4cc(C(F)(F)F)ccn4)CC3)ccc21 [JH-LPH-86]	
0.125 (≈ 0.274 µM)	105	NC(=O)N1CCc2cc(S(=O)(=O)N3CCN(c4cc(C(F)(F)F)ccn4)CC3)ccc21 [JH-LPH-91]	
0.063 (≈ 0.129 µM)	5	CC(=O)N1CCc2cc(S(=O)(=O)N3CCN(c4cc(C(F)(F)F)cc(Cl)n4)CC3)ccc21 [JH-LPH-92]	
> 64		NC(=O)N1CCc2cc(S(=O)(=O)N3CCN(c4cccc(C(F)(F)F)n4)CC3)ccc21 [JH-LPH-94]	
4 (≈ 7.51 µM)		NCCNC(=O)N1CCc2cc(S(=O)(=O)N3CCN(c4cc(C(F)(F)F)cc(Cl)n4)CC3)ccc21 [JH-LPH-95]	
	24	NCCCNC(=O)N1CCc2cc(S(=O)(=O)N3CCN(c4cc(C(F)(F)F)cc(Cl)n4)CC3)ccc21 [JH-LPH-98]	
	11	NCCCCNC(=O)N1CCc2cc(S(=O)(=O)N3CCN(c4cc(C(F)(F)F)cc(Cl)n4)CC3)ccc21 [JH-LPH-99]	

SMILES	MIC [1, 3] [µg/mL]	IC50 [2, 4] [nM]	further results
O=C(CCCCNC(=O)N1CCc2cc(S(=O)(=O)N3CCN(c4cc(Cl)cc(C(F)(F)F)c4)CC3)ccc21)NO [JH-LPH-45]	18.7 (≈ 30.9 µM)	17	MIC [1, 5]: 18.7 µg/mL (≈ 31 µM); IC50 [2]: 18 nM; Ki [2]: 7.3 nM; Percentage Activity of KpLpxH (vi/v0) ([2]; listed as 8 (JH-LPH-45)): 18 ± 1%; remaining activity at 0.1 µM [2]: 18 ± 1%; inhibition at 0.1 µM [2]: 82%
O=C(CCCCCNC(=O)Nc1ccc(S(=O)(=O)N2CCN(c3cc(Cl)cc(C(F)(F)F)c3)CC2)cc1)NO [JH-LPH-50]	3.33 (≈ 5.62 µM)	8	MIC [1, 5]: 3.3 µg/mL (≈ 5.57 µM); Ki [2]: 3.1 nM; Percentage Activity of KpLpxH (vi/v0) ([2]; listed as 13 (JH-LPH-50)): 3 ± 2%; remaining activity at 0.1 µM [2]: 3 ± 2%; inhibition at 0.1 µM [2]: 97%; IC50 ([2]; IC50 curves FIG. 3E/4E, read-out: IC50 of KpLpxH inhibition): 7.7 nM
